The record followed here is ChEMBL document CHEMBL1201862, “PubChem BioAssay data set” (2004).

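Tested at 5 concentrations; 48 h exposure; 96-well plates; endpoints linearly interpolated, else capped at highest concentration. GI50 marks 50% less growth.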 Active and inactive are the calls of the source. No stated cut-off is given here; in the data, active = GI50 up to about 1.1 µM and inactive = higher.

Some test systems named below: U-251; HOP-92; SF-268; HCT-116; NCI-H460; K562; OVCAR-3; UACC-257; A498; HOP-62; HCC 2998; SN12C; HT-29; HCT-15; CAKI-1; SK-MEL-5; KM12; M14; DU-145; COLO 205.
Holding throughout (assay): DTP human tumour cell line panel, 48 h

Consider `OC1c2ccccc2[C@@H]2[C@H]1[C@@H](c1ccccc1)C1(Cc3ccccc3C1O)[C@H]2c1ccccc1` (stereo not given in full), for which the GI50 was 3.92 µM (inactive) in the assay on U-251; 3.35 µM (inactive) in the assay on HOP-92; 6.7 µM (inactive) in the assay on SF-268; 3.03 µM (inactive) in the assay with HCT-116; 3.13 µM (inactive) in the assay with NCI-H460; 3.02 µM (inactive) in the assay on K562. The GI50 is 2.36 µM (inactive) with OVCAR-3; 3.93 µM (inactive) with UACC-257; 10.1 µM (inactive) in the assay on A498; 10.7 µM (inactive) with HOP-62; 1.91 µM (inactive) in the assay with HCC 2998; 1.77 µM (inactive) in the assay on SN12C. Further, the GI50 in the assay on HT-29 is 2.29 µM (inactive); with HCT-15, 4.07 µM; with CAKI-1 it was 8.09 µM (inactive); in the assay on SK-MEL-5, 6.21 µM (inactive); in the assay with KM12 it was 2.77 µM (inactive); with M14, 4.75 µM (inactive). The results for the GI50 in the assay with DU-145 and with COLO 205 were 9.86 µM (inactive) and 1.84 µM (inactive), respectively.

For the compound `c1ccc2c3nnc(c2c1)SCCSCCCSCCS3`, the GI50 is 36.1 µM (inactive) in the assay with U-251; 37.2 µM (inactive) with HOP-92; 43.5 µM (inactive) in the assay on SF-268; > 100 µM (inactive) in the assay with HCT-116; > 100 µM (inactive) in the assay on NCI-H460; > 100 µM (inactive) in the assay on K562. The GI50 is 38 µM (inactive) in the assay with OVCAR-3; > 100 µM (inactive) in the assay with UACC-257; 45.1 µM (inactive) with A498; 29.4 µM (inactive) with HOP-62; > 100 µM (inactive) with HCC 2998; 53.8 µM (inactive) in the assay with SN12C. For the same compound, the GI50 in the assay with HT-29 is > 100 µM (inactive); in the assay on HCT-15, greater than 100 µM; in the assay on CAKI-1 it was 39.7 µM (inactive); with SK-MEL-5, 54.1 µM (inactive); in the assay on KM12 it was > 100 µM (inactive); in the assay with M14, > 100 µM (inactive). Moreover, the GI50 in the assay on DU-145 and in the assay with COLO 205 was > 100 µM (inactive) each time.

Turning to `COC(=O)c1ccc(C)cc1CC1Cc2ccc(C)cc2C1=O` (stereo not given), the GI50 is 4.07 µM (inactive) in the assay on U-251; 23 µM (inactive) in the assay on HOP-92; 12.2 µM (inactive) with SF-268; 5.15 µM (inactive) in the assay with HCT-116; 6.61 µM (inactive) in the assay with NCI-H460; 3.21 µM (inactive) in the assay on K562. For the same compound, the GI50 in the assay on OVCAR-3 was 6.17 µM (inactive); with UACC-257 it was 13.2 µM (inactive); with A498 it was 1.53 µM (inactive); in the assay on HOP-62, 22 µM (inactive); in the assay with HCC 2998, 10.1 µM (inactive); in the assay with SN12C it was 12.2 µM (inactive). The GI50 was 3.47 µM (inactive) with HT-29; 3.24 µM in the assay with HCT-15; 7.13 µM (inactive) with CAKI-1; 7.29 µM (inactive) in the assay on SK-MEL-5; 4.27 µM (inactive) in the assay on KM12; 5.7 µM (inactive) in the assay on M14. For the same compound, the GI50 was 22.9 µM (inactive) with DU-145 and 4.54 µM (inactive) in the assay with COLO 205.

For the compound `CCCCCCCCCCCCCCCCCCNC(=O)C(N)Cc1ccc(OCc2ccccc2)cn1` (stereo not given), the GI50 in the assay on U-251 was 18.5 µM (inactive); in the assay with HOP-92 it was 17.1 µM (inactive); in the assay with SF-268 it was 21.9 µM (inactive); in the assay on HCT-116, 21.5 µM (inactive); in the assay on NCI-H460, 15.4 µM (inactive); in the assay with K562, 23.1 µM (inactive). In addition, the GI50 in the assay with OVCAR-3 was 25.4 µM (inactive); in the assay with UACC-257, 19.1 µM (inactive); with A498, 20.3 µM (inactive); in the assay with HOP-62, 19 µM (inactive); in the assay with HCC 2998 it was 11.9 µM (inactive); with SN12C, 27.7 µM (inactive). In addition, the GI50 was 16.8 µM (inactive) with HT-29; 18.9 µM in the assay with HCT-15; 17.2 µM (inactive) with CAKI-1; 18 µM (inactive) in the assay on SK-MEL-5; 18.6 µM (inactive) in the assay on KM12; 17.9 µM (inactive) in the assay with M14. Moreover, the GI50 is 21.3 µM (inactive) in the assay on DU-145 and 15.4 µM (inactive) in the assay on COLO 205.

On to `O=C1Oc2ccccc2C(=O)/C1=C\Nc1nc(-c2ccc(O)c(O)c2)cs1`, for which the GI50 with U-251 is 5.01 µM (inactive); with HOP-92, 13.5 µM (inactive); with SF-268 it was 5.25 µM (inactive); with HCT-116 it was 2.7 µM (inactive); in the assay with NCI-H460, 5.05 µM (inactive); with K562 it was 1.36 µM (inactive). Also, the GI50 in the assay on OVCAR-3 is 2.29 µM (inactive); in the assay with UACC-257, 3.61 µM (inactive); with A498, 11.9 µM (inactive); in the assay with HOP-62, 7.18 µM (inactive); with HCC 2998, 7.14 µM (inactive); with SN12C it was 4.79 µM (inactive). Besides, the GI50 in the assay on HT-29 is 4.63 µM (inactive); with HCT-15, 3.39 µM; in the assay with CAKI-1, 4.63 µM (inactive); in the assay on SK-MEL-5, 4.8 µM (inactive); in the assay on KM12 it was 9.08 µM (inactive); in the assay on M14, 3.22 µM (inactive). Besides, the GI50 was 4.94 µM (inactive) in the assay on DU-145 and 2.3 µM (inactive) with COLO 205.

With `COc1cccc(/C=C2\N=C(Cl)OC2=O)c1O`, the GI50 in the assay with U-251 is > 85.9 µM (inactive); with HOP-92 it was > 100 µM (inactive); with SF-268, > 80 µM (inactive); in the assay on HCT-116, > 100 µM (inactive); in the assay with NCI-H460 it was > 100 µM (inactive); with K562 it was > 100 µM (inactive). Also, the GI50 in the assay with OVCAR-3, in the assay with UACC-257, in the assay with A498, in the assay with HOP-62, in the assay on HCC 2998 and in the assay on SN12C was > 100 µM (inactive) each time. The GI50 in the assay with HT-29 was > 100 µM (inactive); in the assay with HCT-15 it was greater than 100 µM; with CAKI-1, > 100 µM (inactive); in the assay with SK-MEL-5, > 100 µM (inactive); in the assay on KM12 it was > 100 µM (inactive); in the assay on M14, > 100 µM (inactive). Moreover, the GI50 with DU-145 and with COLO 205 was > 100 µM (inactive) throughout.

Consider `COC1OC(C)/C(=N/O)C2OC(C)(C)OC12` (stereo not given), for which the GI50 in the assay with U-251, in the assay with HOP-92, in the assay with SF-268, in the assay on HCT-116, with NCI-H460 and with K562 was > 100 µM (inactive) throughout. For the same compound, the GI50 with OVCAR-3, in the assay with UACC-257, in the assay with A498, in the assay on HOP-62, in the assay on HCC 2998 and in the assay with SN12C was > 100 µM (inactive) in each case. Further, the GI50 with HT-29 was > 100 µM (inactive); in the assay with HCT-15, greater than 100 µM; with CAKI-1 it was > 100 µM (inactive); with SK-MEL-5 it was > 100 µM (inactive); in the assay with KM12 it was > 100 µM (inactive); in the assay on M14, > 100 µM (inactive). For the same compound, the GI50 in the assay with DU-145 and with COLO 205 was > 100 µM (inactive) each time.

Regarding `CCOC(=O)c1ccc(NC(=O)Oc2ccc3c(C)cc(=O)oc3c2)cc1`, the GI50 with U-251 is 32.9 µM (inactive); with HOP-92, 23.7 µM (inactive); in the assay with SF-268, 37 µM (inactive); in the assay with HCT-116, 28.2 µM (inactive); in the assay with NCI-H460, 29.6 µM (inactive); with K562, 24.3 µM (inactive). Moreover, the GI50 in the assay with OVCAR-3 is 32.7 µM (inactive); in the assay with UACC-257 it was 43.2 µM (inactive); with A498, > 100 µM (inactive); with HOP-62 it was 31.6 µM (inactive); with HCC 2998 it was 23.7 µM (inactive); in the assay on SN12C, 33.1 µM (inactive). For the same compound, the GI50 in the assay with HT-29 is 32.7 µM (inactive); in the assay with HCT-15, 33.7 µM; in the assay with CAKI-1, 36.1 µM (inactive); in the assay on SK-MEL-5, 14.7 µM (inactive); in the assay on KM12, 20.9 µM (inactive); in the assay on M14, 28.5 µM (inactive). Further, the GI50 is 37.2 µM (inactive) with DU-145 and 34.2 µM (inactive) in the assay on COLO 205.

Consider `N#Cc1c(N)nc2c3c1NC(=O)C(C(N)=O)C3c1ccccc1O2` (stereo not given), for which the GI50 with U-251 is > 100 µM (inactive); in the assay with HOP-92, 12.9 µM (inactive); with SF-268, 26.2 µM (inactive); in the assay on HCT-116, > 100 µM (inactive); in the assay with NCI-H460, > 100 µM (inactive); with K562, > 100 µM (inactive). Besides, the GI50 is > 100 µM (inactive) in the assay on OVCAR-3; > 100 µM (inactive) in the assay on UACC-257; > 100 µM (inactive) with A498; 60.8 µM (inactive) in the assay on HOP-62; > 100 µM (inactive) in the assay on HCC 2998; > 100 µM (inactive) in the assay with SN12C. Also, the GI50 was > 100 µM (inactive) in the assay with HT-29; greater than 100 µM with HCT-15; > 100 µM (inactive) in the assay on CAKI-1; > 100 µM (inactive) in the assay with SK-MEL-5; > 100 µM (inactive) with KM12; > 100 µM (inactive) in the assay on M14. In addition, the GI50 is 67.6 µM (inactive) in the assay with DU-145 and > 100 µM (inactive) in the assay on COLO 205.

Turning to `COC(=O)C1(CCC(C)=O)CCCCCC1=O` (stereo not given), the GI50 in the assay with U-251, in the assay on HOP-92, with SF-268, in the assay with HCT-116, in the assay on NCI-H460 and with K562 was > 100 µM (inactive) each time. In addition, the GI50 with OVCAR-3, in the assay with UACC-257, in the assay on A498, in the assay with HOP-62, in the assay with HCC 2998 and in the assay with SN12C was > 100 µM (inactive) throughout. Moreover, the GI50 is > 100 µM (inactive) in the assay with HT-29; greater than 100 µM with HCT-15; > 100 µM (inactive) in the assay with CAKI-1; > 100 µM (inactive) in the assay with SK-MEL-5; > 100 µM (inactive) in the assay on KM12; > 100 µM (inactive) in the assay with M14. Further, the GI50 in the assay on DU-145 and with COLO 205 was > 100 µM (inactive) in each case.
